Assay results taken from US6652853B2, “Method for treating cancer using A33 specific antibodies and chemotherapeutic agents” (Ludwig Institute for Cancer Research, priority 2001, dated 2003).

System: cell cultures (cancer cells)
Assay: Cytotoxic effects in cell cultures, QFA, calicheamicin and huA33 conjugates
Conditions: added to cell cultures

Question: With calicheamicin as the substance, how does the “cytotoxic effects in vitro” value read?
Answer: The value was “weak cytotoxic effects”.
